Test results published in ChEMBL document CHEMBL2380242, “Discovery of novel orally bioavailable GPR40 agonists” (Bioorg Med Chem Lett, 2013).
pEC50, pIC50: −log10 of the molar value. Calls of active or inactive are those of the source. The rule behind the calls is not given here.

How the values were obtained:
[1] = target: T1, Free fatty acid receptor 1 (Homo sapiens, UniProt O14842); assay: Agonist activity at human GPR40 transfected in CHO cells by calcium flux assay relative to TAK-875; assay type: functional, cell-based
T1 sequence (O14842 whole entry): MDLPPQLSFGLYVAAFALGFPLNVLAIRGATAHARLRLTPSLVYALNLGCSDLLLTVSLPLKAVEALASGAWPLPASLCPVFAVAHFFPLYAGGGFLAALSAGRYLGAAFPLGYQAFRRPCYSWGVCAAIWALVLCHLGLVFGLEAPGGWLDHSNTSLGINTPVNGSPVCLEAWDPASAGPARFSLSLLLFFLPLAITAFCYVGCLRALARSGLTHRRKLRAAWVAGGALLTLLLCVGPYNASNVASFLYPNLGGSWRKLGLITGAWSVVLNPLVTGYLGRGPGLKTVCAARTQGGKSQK

[2] = target: T1, Free fatty acid receptor 1; assay: Agonist activity at human GPR40 transfected in CHO cells by calcium flux assay; assay type: functional, cell-based
[3] = Plasma clearance in cynomolgus monkey at 6 mg/kg, po; assay type: ADME, organism-based, Macaca fascicularis; parameters: dose 6 mg/kg, route oral
[4] = target: T2, Free fatty acid receptor 4 (Homo sapiens) (UniProt Q5NUL3); assay: Agonist activity at GPR120 (unknown origin) up to 10 uM
T2 sequence (whole entry): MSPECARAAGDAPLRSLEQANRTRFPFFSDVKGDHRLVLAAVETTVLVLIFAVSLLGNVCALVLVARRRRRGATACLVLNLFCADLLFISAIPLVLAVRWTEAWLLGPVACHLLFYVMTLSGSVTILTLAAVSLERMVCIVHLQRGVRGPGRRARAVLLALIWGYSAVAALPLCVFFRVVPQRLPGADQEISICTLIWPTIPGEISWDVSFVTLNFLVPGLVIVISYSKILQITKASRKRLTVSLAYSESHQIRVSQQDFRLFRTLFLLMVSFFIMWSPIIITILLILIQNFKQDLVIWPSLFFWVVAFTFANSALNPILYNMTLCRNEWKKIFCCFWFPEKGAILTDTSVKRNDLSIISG

[5] = AUC in beagle dog at 1 mg/kg, po; assay type: ADME, organism-based, Canis lupus familiaris; parameters: dose 1 mg/kg, route oral; settings: plasma
[6] = Cmax in beagle dog at 1 mg/kg, po; assay type: ADME, organism-based, Canis lupus familiaris; parameters: dose 1 mg/kg, route oral; settings: in vivo
[7] = tested on: Rhesus monkey; assay: Antidiabetic activity in obese type 2 diabetic rhesus monkey model assessed as inhibition of blood glucose excursion at 20 mg/kg, po administered 1 to 2 hrs prior to dextrose challenge measured for 60 mins by IVGTT relative to control; assay type: functional; settings: Macaca mulatta
[8] = tested on: Canis familiaris; assay: Volume of distribution in beagle dog at 1 mg/kg, po; assay type: ADME, organism-based, Canis lupus familiaris; parameters: dose 1 mg/kg, route oral; settings: in vivo
[9] = target: T3, Free fatty acid receptor 2 (Homo sapiens) (UniProt O15552); assay: Agonist activity at GPR43 (unknown origin) up to 10 uM
T3 sequence (whole entry): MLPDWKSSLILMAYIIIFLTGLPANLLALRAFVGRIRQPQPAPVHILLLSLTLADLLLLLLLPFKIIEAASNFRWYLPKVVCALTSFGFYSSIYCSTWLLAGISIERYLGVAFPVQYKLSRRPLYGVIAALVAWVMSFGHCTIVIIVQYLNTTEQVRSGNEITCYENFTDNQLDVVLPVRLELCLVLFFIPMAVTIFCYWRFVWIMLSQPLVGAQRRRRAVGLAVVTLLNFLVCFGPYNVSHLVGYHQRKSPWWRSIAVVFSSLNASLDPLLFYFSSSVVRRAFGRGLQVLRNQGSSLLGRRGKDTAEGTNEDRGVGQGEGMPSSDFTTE

[10] = tested on: Mus musculus; assay: Antidiabetic activity in high fat feasted ICR mouse assessed as inhibition of blood glucose excursion at 50 mg/kg, po administered 15 mins prior to dextrose challenge measured for 120 mins by OGTT relative to control; assay type: functional
[11] = tested on: Cynomolgus monkey; assay: Volume of distribution in cynomolgus monkey at 6 mg/kg, po; assay type: ADME, organism-based, Macaca fascicularis; parameters: dose 6 mg/kg, route oral; settings: in vivo
[12] = tested on: Rhesus monkey; assay: Antidiabetic activity in obese type 2 diabetic rhesus monkey model assessed as inhibition of blood glucose excursion at 6 mg/kg, po administered 1 to 2 hrs prior to dextrose challenge measured for 60 mins by IVGTT relative to control; assay type: functional; settings: Macaca mulatta
[13] = AUC in rat at 5 mg/kg, po; assay type: ADME, organism-based; parameters: dose 5 mg/kg, route oral; settings: plasma
[14] = tested on: Rattus norvegicus; assay: Volume of distribution in rat at 5 mg/kg, po; assay type: ADME, organism-based; parameters: dose 5 mg/kg, route oral; settings: in vivo
[15] = Lipophilicity, log D of the compound; assay type: physicochemical; settings: octanol/water
[16] = Half life in rat at 5 mg/kg, po; assay type: ADME, organism-based; parameters: dose 5 mg/kg, route oral; settings: in vivo
[17] = Inhibition of CYP450 (unknown origin); assay type: ADME, Homo sapiens
[18] = Cmax in rat at 5 mg/kg, po; assay type: ADME, organism-based; parameters: dose 5 mg/kg, route oral; settings: in vivo
[19] = Half life in beagle dog at 1 mg/kg, po; assay type: ADME, organism-based, Canis lupus familiaris; parameters: dose 1 mg/kg, route oral; settings: in vivo
[20] = target: Free fatty acid receptor 1 (Rattus norvegicus) (UniProt Q8K3T4); assay: Agonist activity at GPR40 in rat INS-1 cells assessed as glucose-stimulated insulin secretion relative to TAK-875; assay type: cell-based; settings: INS1
Sequence of Free fatty acid receptor 1 (Rattus norvegicus) (Q8K3T4 whole entry): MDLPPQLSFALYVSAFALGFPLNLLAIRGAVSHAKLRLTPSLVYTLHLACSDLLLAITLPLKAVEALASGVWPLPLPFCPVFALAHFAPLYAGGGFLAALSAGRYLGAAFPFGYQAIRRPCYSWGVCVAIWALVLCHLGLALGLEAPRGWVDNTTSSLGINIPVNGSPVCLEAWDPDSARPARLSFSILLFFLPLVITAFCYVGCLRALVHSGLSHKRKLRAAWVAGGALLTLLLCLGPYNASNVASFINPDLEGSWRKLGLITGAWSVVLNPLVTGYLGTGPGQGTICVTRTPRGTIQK

[21] = Half life in cynomolgus monkey at 6 mg/kg, po; assay type: ADME, organism-based, Macaca fascicularis; parameters: dose 6 mg/kg, route oral; settings: in vivo
[22] = target: T4, Free fatty acid receptor 3 (Homo sapiens) (UniProt O14843); assay: Agonist activity at GPR41 (unknown origin) up to 10 uM
T4 sequence (whole entry): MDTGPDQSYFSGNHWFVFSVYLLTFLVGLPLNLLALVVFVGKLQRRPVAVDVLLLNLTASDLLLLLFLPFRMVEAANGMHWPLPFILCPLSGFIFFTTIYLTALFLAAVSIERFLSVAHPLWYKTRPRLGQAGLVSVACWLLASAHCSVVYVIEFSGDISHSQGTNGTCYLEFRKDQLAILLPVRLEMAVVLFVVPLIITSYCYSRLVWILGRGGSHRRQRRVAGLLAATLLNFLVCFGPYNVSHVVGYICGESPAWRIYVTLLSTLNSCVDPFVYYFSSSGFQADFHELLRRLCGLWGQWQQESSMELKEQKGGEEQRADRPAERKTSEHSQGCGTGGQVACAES

[23] = AUC in cynomolgus monkey at 6 mg/kg, po; assay type: ADME, organism-based, Macaca fascicularis; parameters: dose 6 mg/kg, route oral; settings: plasma
[24] = Plasma clearance in rat at 5 mg/kg, po; assay type: ADME, organism-based; parameters: dose 5 mg/kg, route oral
[25] = Plasma clearance in beagle dog at 1 mg/kg, po; assay type: ADME, organism-based, Canis lupus familiaris; parameters: dose 1 mg/kg, route oral
[26] = tested on: Rhesus monkey; assay: Antidiabetic activity in obese type 2 diabetic rhesus monkey model assessed as inhibition of blood glucose excursion at 6 mg/kg, po administered 1 to 2 hrs prior to dextrose challenge measured for 120 mins by IVGTT relative to control; assay type: functional; settings: Macaca mulatta
[27] = tested on: Rhesus monkey; assay: Antidiabetic activity in obese type 2 diabetic rhesus monkey model assessed as inhibition of blood glucose excursion at 20 mg/kg, po administered 1 to 2 hrs prior to dextrose challenge measured for 120 mins by IVGTT relative to control; assay type: functional; settings: Macaca mulatta
[28] = Cmax in cynomolgus monkey at 6 mg/kg, po; assay type: ADME, organism-based, Macaca fascicularis; parameters: dose 6 mg/kg, route oral; settings: in vivo
[29] = tested on: Mus musculus; assay: Antidiabetic activity in high fat feasted ICR mouse assessed as reduction of blood glucose excursion at 50 mg/kg, po administered 15 mins prior to dextrose challenge measured for 120 mins by OGTT; assay type: functional, organism-based; parameters: dose 50 mg/kg

Molecule `Cc1cc(OCCCS(C)(=O)=O)cc(C)c1-c1cccc([C@@H]2COc3cc4c(cc3O2)OC[C@H]4CC(=O)O)c1` has an Emax [1] of 124% and a pEC50 [2] of 7.25.

Work on `Cc1cc(C)cc(-c2cccc(C3COc4cc5c(cc4O3)OC[C@H]5CC(=O)O)c2)c1` (stereo partly drawn) yielded an Emax [1] of 68% and a pEC50 [2] of 6.88.

`Cc1cccc(C)c1-c1cccc([C@H]2COc3cc4c(cc3O2)OC[C@H]4CC(=O)O)c1` gave an Emax [1] of 72% and a pEC50 [2] of 7.52.

`CS(=O)(=O)CCCOc1ccc(-c2cc(F)cc(C3COc4cc5c(cc4O3)OC[C@H]5CC(=O)O)c2)c(Cl)c1` (stereo partly drawn) showed an Emax [1] of 69% and a pEC50 [2] of 6.69.

`Cc1cc(OCCCS(C)(=O)=O)c(F)c(C)c1-c1cccc([C@H]2COc3cc4c(cc3O2)OC[C@H]4CC(=O)O)c1` showed an Emax [1] of 77% and a pEC50 [2] of 6.92.

`Cc1cc(OCCCS(C)(=O)=O)c(F)c(C)c1-c1cccc([C@@H]2COc3cc4c(cc3O2)OC[C@H]4CC(=O)O)c1` showed an Emax [1] of 83% and a pEC50 [2] of 7.08.

`O=C(O)C[C@@H]1COc2cc3c(cc21)OCC(c1cccc(-c2ccccc2C(F)(F)F)c1)O3` (stereo partly drawn) showed an Emax [1] of 104% and a pEC50 [2] of 7.13.

In the case of `O=C(O)C[C@@H]1COc2cc3c(cc21)OC[C@H](c1cccc(-c2ccccc2Cl)c1)O3` (mixture of isomers), the Emax [1] was 97% and the pEC50 [2] was 7.25.

With `O=C(O)C[C@@H]1COc2cc3c(cc21)OC[C@@H](c1cccc(Cl)c1)O3` the CL/F [3] was 0.833 mL/min/kg, the Activity [4] was “inactive” and the AUC [5] was 35.6 µg·h/mL. The Emax [1] was 87%, the Cmax [6] was 2670 ng/mL and the inhibition in vivo at 20 mg/kg [7] was 16.4%. For the same molecule, the Vd [8] was 0.71 L/kg, the Activity [9] was “inactive” and the inhibition in vivo at 50 mg/kg [10] was 11%. For the same molecule, the pEC50 [2] was 7.47, the Vd [11] was 0.85 L/kg and the inhibition in vivo at 6 mg/kg [12] was 7.71%. For the same molecule, the AUC [13] was 666 µg·h/mL, the Vd [14] was 0.21 L/kg and the logD [15] was under 3. The half-life [16] was 27.5 h, the pIC50 [17] was under 4.30 and the Cmax [18] was 22000 ng/mL. For the same molecule, the half-life [19] was 21.1 h, the Emax [20] was 36.8% and the half-life [21] was 12.9 h. The Activity [22] was “inactive”, the AUC [23] was 126 µg·h/mL and the CL/F [24] was 0.0833 mL/min/kg. The CL/F [25] was 0.333 mL/min/kg, the inhibition in vivo at 6 mg/kg [26] was 10.7% and the inhibition in vivo at 20 mg/kg [27] was 13.2%. For the same molecule, the Cmax [28] was 19700 ng/mL.

In the case of `Cc1ccc(C)c(-c2cccc(C3COc4cc5c(cc4O3)OC[C@H]5CC(=O)O)c2)c1` (stereo partly drawn), the Emax [1] was 89% and the pEC50 [2] was 7.06.

With `CS(=O)(=O)CCCOc1ccc(-c2cccc([C@H]3COc4cc5c(cc4O3)OC[C@H]5CC(=O)O)c2)c(Cl)c1` the Emax [1] was 71% and the pEC50 [2] was 6.84.

For `O=C(O)C[C@@H]1COc2cc3c(cc21)OCC(c1cccc(-c2ccccc2)c1)O3` (stereo partly drawn), the Emax [1] was 105% and the pEC50 [2] was 7.18.

In the case of `Cc1cc(OCCCS(C)(=O)=O)cc(C)c1-c1cccc([C@H]2COc3cc4c(cc3O2)OC[C@H]4CC(=O)O)c1`, the Emax [1] was 111% and the pEC50 [2] was 6.55.

In the case of `O=C(O)C[C@@H]1COc2cc3c(cc21)OCC(c1cccc(-c2ccccc2F)c1)O3` (stereo partly drawn), the Emax [1] was 115% and the pEC50 [2] was 7.14.

With `O=C(O)C[C@@H]1COc2cc3c(cc21)OC[C@H](c1cccc(Cl)c1)O3` the Emax [1] was 72% and the pEC50 [2] was 6.66.

With `Cc1cc(OCCCS(C)(=O)=O)cc(C)c1-c1ccc(F)c([C@@H]2COc3cc4c(cc3O2)OC[C@H]4CC(=O)O)c1` the Emax [1] was 87%, the Activity [29] was “inactive” and the pEC50 [2] was 7.33.

`Cc1ccc(-c2cccc(C3COc4cc5c(cc4O3)OC[C@H]5CC(=O)O)c2)c(C)c1` (stereo partly drawn) gave an Emax [1] of 90% and a pEC50 [2] of 7.41.

Work on `Cc1cc(C)c(-c2cccc(C3COc4cc5c(cc4O3)OC[C@H]5CC(=O)O)c2)c(C)c1` (stereo partly drawn) yielded an Emax [1] of 103% and a pEC50 [2] of 7.21.
